Results as given in the NIST ThermoML archive (doi:10.1016/j.jct.2013.12.025).

Assay: refractive index (Na D-line) (dimensionless); xn = mol fraction of the nth substance listed
Details: 101 kPa, Liquid, Standard Abbe refractometry

C=C[Si](C)(C)O[Si](C)(C)C=C [1,3-diethenyl-1,1,3,3-tetramethyldisiloxane] + CCc1ccccc1
refractive index
Details	283.15 K	288.15 K	293.15 K	298.15 K	303.15 K
x1 = 0.0501	1.49399	1.49133	1.48864	1.48591	1.48318
x1 = 0.1001	1.48737	1.48473	1.48204	1.47931	1.4766
x1 = 0.1499	1.48124	1.47856	1.47587	1.47319	1.47044
x1 = 0.2001	1.47548	1.47282	1.47013	1.46745	1.46472
x1 = 0.25	1.47011	1.46746	1.46476	1.46206	1.45934
x1 = 0.3	1.46506	1.46243	1.45974	1.45705	1.45432
x1 = 0.3499	1.46032	1.45769	1.45502	1.45233	1.4496
x1 = 0.4	1.45589	1.45324	1.45057	1.44786	1.44516
x1 = 0.4501	1.45171	1.44905	1.44639	1.44368	1.44097
x1 = 0.5	1.44774	1.44509	1.44243	1.43975	1.43705
x1 = 0.5503	1.44396	1.44135	1.43866	1.43599	1.43331
x1 = 0.6	1.44044	1.43779	1.43514	1.43246	1.42979
x1 = 0.6501	1.43706	1.43444	1.43177	1.42909	1.42643
x1 = 0.6999	1.43392	1.43128	1.4286	1.42594	1.42325
x1 = 0.7502	1.43084	1.4282	1.42555	1.42288	1.42022
x1 = 0.8001	1.42794	1.42531	1.42264	1.41999	1.41732
x1 = 0.85	1.42518	1.42258	1.41991	1.41723	1.41458
x1 = 0.8999	1.42257	1.41995	1.41729	1.41464	1.41198
x1 = 0.9498	1.42013	1.41752	1.41486	1.41219	1.40954
x1 = 1	1.41762	1.41498	1.41232	1.40969	1.40704

C=C[Si](C)(C)O[Si](C)(C)C=C [1,3-diethenyl-1,1,3,3-tetramethyldisiloxane] + COc1ccccc1
refractive index
Details	283.15 K	288.15 K	293.15 K	298.15 K	303.15 K
x1 = 0.0501	1.51284	1.51027	1.50766	1.50499	1.50234
x1 = 0.1	1.50406	1.5015	1.49885	1.49617	1.49356
x1 = 0.15	1.49596	1.49337	1.49073	1.48807	1.48543
x1 = 0.2004	1.48841	1.48578	1.48317	1.48051	1.47786
x1 = 0.2499	1.48153	1.47893	1.47631	1.47362	1.47098
x1 = 0.3	1.47505	1.47247	1.46982	1.46716	1.4645
x1 = 0.35	1.46908	1.46651	1.46384	1.46116	1.45851
x1 = 0.3997	1.46353	1.46092	1.45829	1.4556	1.45295
x1 = 0.4499	1.45831	1.45568	1.45303	1.45034	1.4477
x1 = 0.5001	1.45338	1.45077	1.44813	1.44544	1.44279
x1 = 0.5499	1.44883	1.4462	1.44358	1.44089	1.43823
x1 = 0.6	1.4445	1.44188	1.43925	1.43657	1.43393
x1 = 0.6499	1.44046	1.43782	1.43521	1.43252	1.42986
x1 = 0.6999	1.43664	1.43403	1.43139	1.4287	1.42604
x1 = 0.7499	1.43304	1.43043	1.42778	1.4251	1.42244
x1 = 0.8	1.42961	1.42699	1.42434	1.42166	1.41901
x1 = 0.8499	1.42639	1.42377	1.42112	1.41846	1.4158
x1 = 0.8998	1.42333	1.4207	1.41806	1.4154	1.41277
x1 = 0.9499	1.42042	1.41779	1.41515	1.41251	1.40987
x1 = 1	1.41766	1.415	1.41236	1.4097	1.40707
